Species: Rattus norvegicus
Test: Open TG-GATES - Regimen: Daily Repeat
Format: toxicity, organism-based, Sprague-Dawley
Design: regimen Daily Repeat, gender Male, age 6 weeks
Conditions: in vivo, po, 8 mg/kg, route gavage, dose level Low; for APTT / Bas / Eos / Fbg / Hb / Ht / Lym / MCH / MCHC / MCV / Mono / Neu / PT / Plat / RBC / Ret / WBC: tissue Blood; for KIDNEY_L / KIDNEY_R / KIDNEY_TOTAL: tissue Kidney; for LIVER: tissue Liver; for A/G / ALP / ALT / AST / BUN / CRE / Ca / Cl / DBIL / GLC / IP / K / LDH / Na / PL / RALB / TBIL / TC / TG / TP / gamma-GTP: tissue Plasma

## NC1=NC(=O)C(c2ccccc2)O1 (configuration not stated) [PEMOLINE]
72 h, time 3 day
  TERMINAL_BW: 232.2 g
  APTT: 17.3 s
  Bas: 0%
  Eos: 1.2%
  Fbg: 275 mg/dL
  Hb: 13.5 g/dL
  Ht: 39.8%
  Lym: 77%
  MCH: 21.5 pg
  MCHC: 33.8%
  MCV: 63.5 fL
  Mono: 3.6%
  Neu: 18.2%
  PT: 12.8 s
  Plat: 112.1 x10_4/uL
  RBC: 627.2 x10_4/ul
  Ret: 7.3%
  WBC: 82.8 x10_2/uL
  KIDNEY_L: 1 g
  KIDNEY_R: 1 g
  KIDNEY_TOTAL: 1.9 g
  LIVER: 11.1 g
  A/G: 0.9
  ALP: 1587 IU/L
  ALT: 45.6 IU/L
  AST: 70.6 IU/L
  BUN: 15 mg/dL
  CRE: 0.2 mg/dL
  Ca: 10.8 mg/dL
  Cl: 105.6 meq/L
  DBIL: 0.018 mg/dL
  GLC: 182 mg/dL
  IP: 8.2 mg/dL
  K: 3.7 meq/L
  LDH: 58.8 IU/L
  Na: 143.6 meq/L
  PL: 155.8 mg/dL
  RALB: 2.7 g/dL
  TBIL: 0.03 mg/dL
  TC: 93 mg/dL
  TG: 84.4 mg/dL
  TP: 5.6 g/dL
  gamma-GTP: 1 IU/L
[…], time 7 day
  TERMINAL_BW: 267.2 g
  APTT: 17.3 s
  Bas: 0.2%
  Eos: 1%
  Fbg: 286.6 mg/dL
  Hb: 13.8 g/dL
  Ht: 40.5%
  Lym: 79.4%
  MCH: 21.6 pg
  MCHC: 34.1%
  MCV: 63.2 fL
  Mono: 3%
  Neu: 16%
  PT: 12.8 s
  Plat: 119.7 x10_4/uL
  RBC: 641.4 x10_4/ul
  Ret: 5.9%
  WBC: 119.6 x10_2/uL
  KIDNEY_L: 1.2 g
  KIDNEY_R: 1.1 g
  KIDNEY_TOTAL: 2.3 g
  LIVER: 12.4 g
  A/G: 0.9
  ALP: 1719 IU/L
  ALT: 45 IU/L
  AST: 69.8 IU/L
  BUN: 15.8 mg/dL
  CRE: 0.2 mg/dL
  Ca: 10.5 mg/dL
  Cl: 103.8 meq/L
  DBIL: 0.014 mg/dL
  GLC: 180.8 mg/dL
  IP: 7.6 mg/dL
  K: 3.9 meq/L
  LDH: 62.6 IU/L
  Na: 142 meq/L
  PL: 152.6 mg/dL
  RALB: 2.6 g/dL
  TBIL: 0.026 mg/dL
  TC: 84.6 mg/dL
  TG: 94.4 mg/dL
  TP: 5.7 g/dL
  gamma-GTP: 1 IU/L
[…], time 14 day
  TERMINAL_BW: 337.4 g
  APTT: 17.3 s
  Bas: 0%
  Eos: 1%
  Fbg: 297 mg/dL
  Hb: 14.2 g/dL
  Ht: 40.8%
  Lym: 74.8%
  MCH: 21.4 pg
  MCHC: 34.8%
  MCV: 61.3 fL
  Mono: 2.4%
  Neu: 21.4%
  PT: 12.7 s
  Plat: 109.6 x10_4/uL
  RBC: 665.6 x10_4/ul
  Ret: 4.6%
  WBC: 83 x10_2/uL
  KIDNEY_L: 1.3 g
  KIDNEY_R: 1.3 g
  KIDNEY_TOTAL: 2.6 g
  LIVER: 14.9 g
  A/G: 0.8
  ALP: 1588.8 IU/L
  ALT: 47.4 IU/L
  AST: 70.4 IU/L
  BUN: 14.8 mg/dL
  CRE: 0.2 mg/dL
  Ca: 11.1 mg/dL
  Cl: 105.6 meq/L
  DBIL: 0.014 mg/dL
  GLC: 179.2 mg/dL
  IP: 8.2 mg/dL
  K: 3.7 meq/L
  LDH: 75 IU/L
  Na: 144.6 meq/L
  PL: 150.4 mg/dL
  RALB: 2.7 g/dL
  TBIL: 0.028 mg/dL
  TC: 80 mg/dL
  TG: 117 mg/dL
  TP: 5.8 g/dL
  gamma-GTP: 1 IU/L
[…], time 28 day
  TERMINAL_BW: 432.5 g
  APTT: 17.5 s
  Bas: 0%
  Eos: 1%
  Fbg: 251.8 mg/dL
  Hb: 15.2 g/dL
  Ht: 42%
  Lym: 70%
  MCH: 20.3 pg
  MCHC: 36.2%
  MCV: 56.2 fL
  Mono: 3.4%
  Neu: 24.6%
  PT: 12.5 s
  Plat: 97.4 x10_4/uL
  RBC: 746.4 x10_4/ul
  Ret: 3.1%
  WBC: 106.7 x10_2/uL
  KIDNEY_L: 1.6 g
  KIDNEY_R: 1.6 g
  KIDNEY_TOTAL: 3.2 g
  LIVER: 17.3 g
  A/G: 0.8
  ALP: 966.8 IU/L
  ALT: 41.4 IU/L
  AST: 63.2 IU/L
  BUN: 15.2 mg/dL
  CRE: 0.2 mg/dL
  Ca: 11.4 mg/dL
  Cl: 104.8 meq/L
  DBIL: 0.016 mg/dL
  GLC: 192.2 mg/dL
  IP: 7.5 mg/dL
  K: 3.9 meq/L
  LDH: 61.8 IU/L
  Na: 142.6 meq/L
  PL: 154.6 mg/dL
  RALB: 2.8 g/dL
  TBIL: 0.028 mg/dL
  TC: 84.4 mg/dL
  TG: 121.4 mg/dL
  TP: 6.1 g/dL
  gamma-GTP: 1 IU/L
